Assay [1] concerns naïve human CD8 T cells. The experiment in a line: CellTiter-Glo CD8 T Cell Proliferation Assay. The class given is cell-based. The following applies: Homo sapiens, T-cell, CellTiter-Glo CD8 T cell proliferation, normalized; read-out: CD8 GLO normalized EC50.
The next assay deals with Human venous whole blood. The experiment in a line: Human Whole Blood IFN-γ Assay. The format is cell-based. On the procedure:
Human venous whole blood (22.5 μL per well), obtained from healthy donors, was pre-treated with compounds for one hour at 37° C. in a humidified 95% air/5% CO2 incubator. The blood was stimulated with 2.5 μL anti-human CD3 and anti-CD28 mAb at a final concentration of 1 μg/mL each for 24 hours at 37° C. IFN-γ in the supernatants was measured using AlphaLISA kit (Cat #AL217).

A further assay has as its target human DGKα (Homo sapiens (Human), UniProt P23743). The experiment in a line: biochemical. Conditions: detergent/lipid micelle substrate; read-out: DGKα IC50. Summed up:
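Full-length human DGKα or DGKζ (C-terminal His tag, Sf9-expressed; 20 nM 4× stock) was preincubated 10 min at room temperature with PS/DAG octyl glucoside micelles in MOPS pH 7.5 buffer with MgCl2, CaCl2 and DTT. It was then started with ATP (300 uM addition) and run for 1 hr, with ADP-Glo luminescence read-out.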

Assay [2] has as its system naïve human CD8 T cells. The experiment in a line: cells. Conditions: 3 μM Example 40 co-stimulation as 100% activation. The essentials: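 Thawed frozen cells, 40,000/well, stimulated on plate-bound anti-CD3 (coated at 0.05 μg/mL) plus soluble anti-CD28 0.1 μg/mL; compounds added immediately after plating. After 20 h at 37° C., supernatant IFN-γ quantitated by AlphaLISA, counts converted to IFN-γ concentration […].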

The test system of assay [3] is pre-activated CD4 T cells and Raji cells. Description: Raji CD4 T Cell IL2 Assay. The format is cell-based.
[4] abbreviates: Homo sapiens, human whole blood, anti-CD3 plus anti-CD28 as baseline, 3 μM Example 40 co-stimulation as 100% activation, read-out: INF-γ Whole Blood Normalized Agonist EC50.
Setting [5] is: Homo sapiens, T-cell, read-out: HuCD8 INFG Normalized EC50, anti-CD3 plus anti-CD28 as baseline.
Where [6] appears, read: Homo sapiens, read-out: INF-γ Whole Blood Agonist EC50.
[7] abbreviates: human whole blood, anti-CD3 plus anti-CD28 as baseline, 3 μM Example 40 co-stimulation as 100% activation, read-out: INF-γ Whole Blood Normalized Agonist EC50.
[8] abbreviates: read-out: HuCD8 INFG Normalized EC50, anti-CD3 plus anti-CD28 as baseline.

Where two headings read alike, the source gives them in different places.

The term EC50 denotes the concentration at which the effect is half-maximal. As usually defined, the IC50 is the concentration that inhibits the measured activity by half.

Sequence of human DGKα (P23743 other isoform, or with tags, fused parts or gaps): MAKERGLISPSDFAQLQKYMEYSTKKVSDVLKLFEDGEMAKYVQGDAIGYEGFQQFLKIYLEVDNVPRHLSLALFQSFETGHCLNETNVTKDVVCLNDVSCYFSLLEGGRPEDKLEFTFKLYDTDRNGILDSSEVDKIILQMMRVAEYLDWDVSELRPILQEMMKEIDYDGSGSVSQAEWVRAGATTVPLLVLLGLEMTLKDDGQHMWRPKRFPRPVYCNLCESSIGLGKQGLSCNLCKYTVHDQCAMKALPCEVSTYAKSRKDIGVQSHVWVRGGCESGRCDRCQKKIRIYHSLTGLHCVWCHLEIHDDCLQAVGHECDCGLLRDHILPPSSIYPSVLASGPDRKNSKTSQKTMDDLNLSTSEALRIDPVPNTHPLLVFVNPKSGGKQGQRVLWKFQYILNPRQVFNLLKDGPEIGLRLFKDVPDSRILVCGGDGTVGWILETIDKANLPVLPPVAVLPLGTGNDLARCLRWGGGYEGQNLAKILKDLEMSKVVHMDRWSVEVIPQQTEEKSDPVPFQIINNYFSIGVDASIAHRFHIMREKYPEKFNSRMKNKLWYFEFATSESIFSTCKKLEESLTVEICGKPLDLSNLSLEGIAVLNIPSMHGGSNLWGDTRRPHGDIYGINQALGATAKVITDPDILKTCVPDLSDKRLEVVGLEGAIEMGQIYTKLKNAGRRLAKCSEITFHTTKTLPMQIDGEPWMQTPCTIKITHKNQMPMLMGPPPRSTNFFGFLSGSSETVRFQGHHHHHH

`COc1ccc2c(n1)c(N1CCN(C(c3ccc(F)cc3)c3ccc(F)cc3OC)CC1)c(C#N)c(=O)n2C` (racemic) [Example 412, 4-{4-[(4-fluoro-2-methoxyphenyl)(4-fluorophenyl)methyl]piperazin-1-yl}-6-methoxy-1-methyl-2-oxo-1,2-dihydro-1,5-naphthyridine-3-carbonitrile]: the values for the EC50 in the assay with naïve human CD8 T cells [1] and with Human venous whole blood (setting [4]) were 300 nM and 3010 nM, respectively.

As to `COc1ccccc1C(c1ccc(F)cc1)N1CCN(c2c(C#N)c(=O)n(C)c3ccc(Br)nc23)CC1` (single isomer, unassigned) [Example 13, 6-bromo-4-{4-[(4-fluorophenyl)(2-methoxyphenyl)methyl]piperazin-1-yl}-1-methyl-2-oxo-1,2-dihydro-1,5-naphthyridine-3-carbonitrile], the concentration for half-maximal inhibition (IC50) was 9500 nM at human DGKα and greater than 100000 nM in assay [3]. In addition, the EC50 came to 10000 nM in the assay on naïve human CD8 T cells [2] (setting [5]) and 5000 nM in the assay with Human venous whole blood (setting [4]).

In the case of `COc1cc(F)ccc1C(c1ccc(F)cc1)N1CCN(c2c(C#N)c(=O)n(C)c3ccc(Br)nc23)CC1` (single isomer, unassigned) [Example 17, 6-bromo-4-{4-[(4-fluoro-2-methoxyphenyl)(4-fluorophenyl)methyl]piperazin-1-yl}-1-methyl-2-oxo-1,2-dihydro-1,5-naphthyridine-3-carbonitrile], the 50% inhibitory concentration (IC50) at human DGKα was 930 nM. The EC50 in the assay on naïve human CD8 T cells [2] (setting [5]) was 520 nM; in the assay with Human venous whole blood (setting [4]), 1150 nM; in the assay with Human venous whole blood (setting [6]) it was 670 nM.

As for `CC(c1ccc(F)cc1)N1CCN(c2c([N+](=O)[O-])c(=O)n(C)c3ccc(C#N)nc23)CC1` (single isomer, unassigned) [Example 44, 8-(4-(1-(4-fluorophenyl)ethyl)piperazin-1-yl)-5-methyl-7-nitro-6-oxo-5,6-dihydro-1,5-naphthyridine-2-carbonitrile], the IC50 on human DGKα came to 230 nM. Besides, the EC50 in the assay on naïve human CD8 T cells [2] (setting [5]) amounted to 180 nM; in the assay with Human venous whole blood (setting [4]) it was 900 nM.

For `COc1cc(F)ccc1C(c1ccc(F)cc1)N1CCN(c2c([N+](=O)[O-])c(=O)n(C)c3ccc(C#N)nc23)CC1` (single isomer, unassigned) [Example 124, 8-(4-((4-fluoro-2-methoxyphenyl)(4-fluorophenyl)methyl)piperazin-1-yl)-5-methyl-7-nitro-6-oxo-5,6-dihydro-1,5-naphthyridine-2-carbonitrile], the IC50 at human DGKα was 750 nM. For the same molecule, the EC50 with naïve human CD8 T cells [2] (setting [5]) was determined as 10 nM; in the assay on naïve human CD8 T cells [1] it was 20 nM; in the assay with Human venous whole blood (setting [4]), 100 nM; with Human venous whole blood (setting [6]), 140 nM.

Turning to `C#CCn1c(=O)c([N+](=O)[O-])c(N2CCN(C(C)c3ccc(F)cc3)CC2)c2nc(C#N)ccc21` (single isomer, unassigned) [Example 137, 8-(4-(1-(4-fluorophenyl)ethyl)piperazin-1-yl)-7-nitro-6-oxo-5-(prop-2-yn-1-yl)-5,6-dihydro-1,5-naphthyridine-2-carbonitrile], the IC50 on human DGKα stood at 280 nM. Moreover, the EC50 in the assay with naïve human CD8 T cells [2] (setting [5]) came to 40 nM; with Human venous whole blood (setting [7]), 5000 nM.

On to `COc1cc(F)ccc1C(c1ccc(F)cc1)N1CCN(c2c(C#N)c(=O)n(C)c3ccc(C#N)nc23)CC1` (single isomer, unassigned) [Example 406, 8-{4-[(4-fluoro-2-methoxyphenyl)(4-fluorophenyl)methyl]piperazin-1-yl}-5-methy-6-oxo-5,6-dihydro-L5-naphthyridine-2,7-dicarbonitrile], for which the EC50 was determined as 410 nM in the assay with naïve human CD8 T cells [2] (setting [8]) and 2190 nM in the assay with Human venous whole blood (setting [7]).

For `COc1cc(F)ccc1C(c1ccc(F)cc1)N1CCN(c2c(C#N)c(=O)n(C)c3ccc(C#N)nc23)CC1` (single isomer, unassigned) [Example 407, 8-{4-[(4-fluoro-2-methoxyphenyl)(4-fluorophenyl)methyl]piperazin-1-yl}-5-methy-6-oxo-5,6-dihydro-L5-naphthyridine-2,7-dicarbonitrile], the figures for the EC50 in the assay on naïve human CD8 T cells [2] (setting [8]) and with Human venous whole blood (setting [7]) were 120 nM and 780 nM, respectively.

For the molecule `Cc1ccc(CN2CCN(c3c(C#N)c(=O)n(C)c4ccc(Cl)nc34)CC2)cc1` [Example 386, 6-chloro-1-methyl-4-{4-[(4-methylphenyl)methyl]piperazin-1-yl}-2-oxo-1,2-dihydro-1,5-naphthyridine-3-carbonitrile], the half-inhibitory concentration (IC50) at human DGKα came to 150 nM. The EC50 stood at 960 nM in the assay with naïve human CD8 T cells [2] (setting [5]) and 1240 nM with Human venous whole blood (setting [4]).

As to `Cc1ccc(CN2CCN(c3c(C#N)c(=O)n(C)c4ccc(Cl)nc34)CC2)c(F)c1` [Example 423, 6-chloro-4-{4-[(2-fluoro-4-methylphenyl)methyl]piperazin-1-yl}-1-methyl-2-oxo-1,2-dihydro-1,5-naphthyridine-3-carbonitrile], the concentration for half-maximal inhibition (IC50) at human DGKα was 1400 nM; in assay [3] (Homo sapiens, Raji), greater than 100000 nM. Further, the EC50 with naïve human CD8 T cells [2] (setting [5]) turned out to be 460 nM; with Human venous whole blood (setting [4]), 10000 nM.

With `Cn1c(=O)c(C#N)c(N2CCN(C(C)(C)c3ccc(F)cc3)CC2)c2nc(Cl)ccc21` [Example 425, 6-chloro-4-{4-[2-(4-fluorophenyl)propan-2-yl]piperazin-1-yl}-1-methyl-2-oxo-1,2-dihydro-1,5-naphthyridine-3-carbonitrile], the IC50 is 1800 nM on human DGKα and greater than 100000 nM in assay [3] (Homo sapiens, Raji). In addition, the values for the EC50 with naïve human CD8 T cells [1] and with Human venous whole blood (setting [4]) were 190 nM and 10000 nM, respectively.

(Values after patent US11866430B2, “Naphthyridinone compounds useful as T cell activators” (priority 2018, dated 2024).)
